Results from article PMC10257182, “Discovery of senolytics using machine learning” (Nature Communications, 2023).
Where “and” joins values, the source holds several entries; their conditions need not be identical. Equal entries are not always repeated. Where two headings read alike, the source gives them in different places.

Tests used:
Assay type in all cases: cell-based, human
[1] = test system: caspase 3/7 activity in senescent IMR90 ER:RAS cells; test: Caspase 3/7 activity assay; design: Caspase 3/7 activity time course (SUP FIG 9F) / Caspase 3/7 activity time course (SUP FIG 9F exp not shown): unit not given here; settings: for Caspase 3/7 activity time course (SUP FIG 9F) / Caspase 3/7 activity time course (SUP FIG 9F exp not shown): ER:RAS cells; for Caspase 3/7 activity time course (SUP FIG 9F exp not shown): second experiment, data not shown; for Casp3/7 activity (percentage of green fluorescent cells): ER:RAS, 100 nM 4OHT, 10 nM compound, 35 h
Experimental: IMR90 ER:STOP and IMR90 ER:RAS cells were cultured with 100 nM 4-OHT for 5 days. Cell were then plated in a multiwell plate at high density. Once cells were attached, Caspase 3/7 probe (C10423 Invitrogen) and senolytic drugs, oleandrin, ouabain and periplocin at 10 nM, were added to the media and cultured for 36 h. Time lapse imaging was recorded every hour on a Leica AF6500 microscope (10x). ImageJ 1.53k was used for positive cell counting.

[2] = test system: IMR90 cells at passage 27 (replicative senescence); test: Cell survival assay using crystal violet staining, replicative senescence; settings: for % Cell Survival: Replicative Senescence (RS) cells, individual replicate values, Control DMSO = 100
Excerpt: IMR90 (CCL-186) human foetal lung fibroblasts and A549 (CCL-185) human lung adenocarcinoma cells were obtained from the American Type Culture Collection (ATCC, Manassas, VA). The cell lines were confirmed to be mycoplasma negative (Lonza MycoAlert, cat #LT07-118). IMR90 ER:RAS is a derivative of IMR90 cells expressing a switchable version of oncogenic H-Ras[84]. IMR90 ER:RAS and A549 cells were maintained in Dulbecco’s Modified Eagle Medium (DMEM, ThermoFisher) supplemented with foetal bovine serum (10%), L-glutamine (2 mM, ThermoFisher), and antibiotic-antimycotic solution (1%, ThermoFisher) and incubated under standard tissue culture conditions (37 °C and 5% CO2). For induction of the senescent phenotype, IMR90-ER:RAS cells were cultured in hydroxytamoxifen (4-OHT) (Sigma) added media at 100 nM final concentration. IMR90 were kept in culture for over 27 passages for replicative senescence. Cells were tested for mycoplasma on a regular basis.
(§1) Equal numbers of control and senescent cells were plated at high density on multiwell plates just before senolytic treatment addition. After treatment, cells were fixed on 0.5% glutaraldehyde (Sigma) and then dried at RT overnight. Then, wells were stained with crystal violet solution for 3 h, washed and dried. Once they were completely dry, the plates were scanned for records. Quantification was performed extracting the staining with 1% acetic acid and measuring the final solution by absorbance at 595 nm.

[3] = test system: control A549 cells; test: Cell survival assay using crystal violet staining, TIS, control cells; settings: for % Cell Survival: Control (no etoposide) cells, Control DMSO = 100, single replicates (SUP FIG 9E)
Experimental: as §1, with “nm. […]” for “nm.”
(§2) cells per condition is indicated. (d) Cell survival assay measuring the senolytic effect in lung cancer senescent cells. The panels show a representative crystal violet staining of tissue culture dishes of confluent A549 cells treated with 100 μM etoposide and control A549 cells, all treated with 10 nM oleandrin, ouabain and periplocin, and DMSO as vehicle control for 72 hours as indicated. (e) Graph representing the cell survival by quantification of the crystal violet staining of the experiment described in (d), as described in Methods. Data represented as individual datapoints, and bars and error bars representing the mean ± SEM of 14 independent experiments. Statistical analysis was performed using a one-way ANOVA (Tukey’s test) for multiple comparisons. […]
(§3) Scale bars represent 100 μm. ns = not significant, * = p < 0.05, ** = p < 0.01, *** = p < 0.001, **** = p < 0.0001. Source data are provided as a Source Data file.

[4] = test system: A549 cells treated with 100 μM etoposide; test: Cell survival assay using crystal violet staining, TIS, senescent cells; settings: for % Cell Survival: Etoposide-treated (senescent) cells, Control DMSO = 100, single replicates (SUP FIG 9E)
Experimental: as §1, with “nm. […]” for “nm.”
as §2, §3

[5] = test system: A549 cells treated with 100 μM etoposide; test: as above; settings: fraction of Control DMSO = 1, n 15
[6] = test system: control IMR90 ER:STOP cells; test: Cell survival assay using crystal violet staining, OIS, control cells; design: % Cell Survival: concentration or dose not given beside the values; settings: for % Cell Survival / Mean (cell survival, Tukey test details): FIG 4B, ER:STOP cells; for % Cell Survival: individual replicate values, ER:STOP DMSO = 100; for Mean (cell survival, Tukey test details): mean of n=12 as fraction of STOP DMSO = 1
Experimental: as §1

[7] = test system: proliferating IMR90 cells; test: BrdU incorporation proliferation assay; settings: for % BrdU positive cells, mean (Test details, Mean 2) / % BrdU positive cells: IMR90 cells; for % BrdU positive cells, mean (Test details, Mean 2): n 4; for % BrdU positive cells: single replicates (SUP FIG 9G); for proliferation by BrdU incorporation, in words: proliferating IMR90 cells, 10 nM
Experimental: 5-bromo-2′-deoxyuridine (BrdU) incorporation was used to measure the number of cells actively replicating DNA. Cells were incubated with 10 μM BrdU (85811, Sigma) for 18 h. After that, cells were fixed with 4% Paraformaldehyde, permeabilised, blocked and then stained for immunofluorescence using BrdU primary antibody (555627 BD Pharmigen), Alexa fluor secondary for detection, and DAPI staining for cell counting. Acquisition was done with a Nikon TI2 microscope and analysis was performed with ImageJ for cell counting.

[8] = test system: senescent IMR90 ER:RAS cells; test: Cell survival assay using crystal violet staining, OIS, senescent cells; design: % Cell Survival: concentration or dose not given beside the values; settings: for % Cell Survival / Mean (cell survival, Tukey test details): FIG 4B, ER:RAS cells; for % Cell Survival: individual replicate values, ER:STOP DMSO = 100; for Mean (cell survival, Tukey test details): mean of n=12 as fraction of STOP DMSO = 1
Experimental: as §1

[9] = test system: NOXA mRNA in IMR90 cells at passage 27; test: NOXA mRNA expression by RT-qPCR, replicative senescence; settings: for NOXA mRNA expression, group mean (Test details, Mean 2): Replicative Senescence (RS) cells, mean of n=3; for NOXA mRNA expression, group mean (Test details, Mean 2) / NOXA mRNA expression: 10 nM; for NOXA mRNA expression: Replicative Senescence cells, relative to Control DMSO = 1, individual replicate values
Experimental: Total RNA was isolated using RNAeasy kit (Quiagen). cDNA was generated with reverse transcriptase iScript (Bio-Rad). RT-qPCR was performed using SYBR Select Master Mix (Applied Biosystems) in OneStepPlus detection system (Applied Biosystems). Oligos for amplification were: NOXA Fw-[…] and Rv-[…]; b-ACTIN Fw-[…] and Rv-[…]; IL1a Fw-[…] and Rv- […]; IL1b Fw-[…] and Rv- […]; IL8 Fw-[…] and Rv-[…]; p16 Fw-CGGTCGGAGGCCGATCCAG and Rv- […]; p21Fw-[…] and Rv- […].

SMILES	Caspase 3/7 activity time course (SUP FIG 9F) ([1]; 01:00:00 hours)	Caspase 3/7 activity time course (SUP FIG 9F exp not shown) ([1]; 01:00:00 hours)	Caspase 3/7 activity time course (SUP FIG 9F) ([1]; 05:00:00 hours)	Caspase 3/7 activity time course (SUP FIG 9F exp not shown) ([1]; 05:00:00 hours)	Caspase 3/7 activity time course (SUP FIG 9F) ([1]; 10:00:00 hours)	Caspase 3/7 activity time course (SUP FIG 9F exp not shown) ([1]; 10:00:00 hours)	Caspase 3/7 activity time course (SUP FIG 9F) ([1]; 15:00:00 hours)	Caspase 3/7 activity time course (SUP FIG 9F exp not shown) ([1]; 15:00:00 hours)	Caspase 3/7 activity time course (SUP FIG 9F) ([1]; 20:00:00 hours)	Caspase 3/7 activity time course (SUP FIG 9F exp not shown) ([1]; 20:00:00 hours)	Caspase 3/7 activity time course (SUP FIG 9F) ([1]; 1 day, 1:00:00)	Caspase 3/7 activity time course (SUP FIG 9F exp not shown) ([1]; 1 day, 1:00:00)	Caspase 3/7 activity time course (SUP FIG 9F) ([1]; 1 day, 6:00:00)	Caspase 3/7 activity time course (SUP FIG 9F exp not shown) ([1]; 1 day, 6:00:00)	Caspase 3/7 activity time course (SUP FIG 9F) ([1]; 1 day, 11:00:00)	Caspase 3/7 activity time course (SUP FIG 9F exp not shown) ([1]; 1 day, 11:00:00)	Casp3/7 activity (percentage of green fluorescent cells) [1]	% Cell Survival ([2]; FIG 4C)	% Cell Survival [3]	% Cell Survival [4]	also measured
CO[C@H]1C[C@H](O[C@H]2CC[C@@]3(C)[C@H](CC[C@@H]4[C@@H]3CC[C@]3(C)[C@@H](C5=CC(=O)OC5)[C@@H](OC(C)=O)C[C@]43O)C2)O[C@@H](C)[C@@H]1O [Oleandrin, oleandrin]	0.9	0.75	1.1	1.25	2.3	3.9	3	7.9	4	13.8	7.8	16.55	11	18.55	13.5	19.65	92.2%	54.5% and 40.7% and 48% and 38.1% and 50.7% and 43.4% and 31.1% and 55% and 50.3% and 37.4% and 44.9% and 40.3%	99.6% and 145% and 133.8% and 119.3% and 135.9% and 111.6% and 113.5% and 93% and 97.3% and 116% and 109.5% and 116.3% and 95.4% and 109%	39.4% and 53.4% and 51.6% and 7.8% and 48.5% and 38.4% and 46.7% and 32.6% and 33.1% and 7.9% and 36.2% and 37.5% and 30.5% and 41.5%	Mean (cell survival, Tukey test details) ([2]; FIG 4C, RS cells, mean of n=12 as fraction of Young DMSO = 1): 0.4453; cellular content in senescent cultures (crystal violet), in words ([2]; replicative senescence IMR90, 10 nM, 72 h): significant reduction in cellular content; cellular density in non-senescent control cultures, in words ([3]; A549 control, 10 nM, 72 h): unchanged; cellular content in senescent cultures (crystal violet), in words ([4]; A549 TIS with etoposide, 10 nM, 72 h): significant reduction in cellular content; Cell survival, mean (Test details, Mean 2) [5]: 0.3827; % Cell Survival [6]: 89.1% and 95.2% and 73.8% and 89.4% and 107.6% and 89% and 95.8% and 77.8% and 100% and 72.7% and 87.5% and 82.7%; Mean (cell survival, Tukey test details) [6]: 0.8838; % BrdU positive cells, mean (Test details, Mean 2) [7]: 69.23%; % BrdU positive cells [7]: 69.38% and 67.43% and 69.89% and 70.23%; proliferation by BrdU incorporation, in words [7]: none of the cardiac glycosides induced unwanted changes in proliferation; % Cell Survival [8]: 37.9% and 39.1% and 12.2% and 30.1% and 44.2% and 34.9% and 40.3% and 12.5% and 41% and 10.4% and 36% and 34.1%; Mean (cell survival, Tukey test details) [8]: 0.3106; cytotoxic activity / cellular content (crystal violet), in words ([8]; IMR90-ER:RAS cells undergoing OIS, 10 nM, 72 h): significant drop in cellular content; NOXA mRNA expression, group mean (Test details, Mean 2) [9]: 56.63; NOXA mRNA expression [9]: 62.46 and 54.37 and 53.07; NOXA mRNA expression, in words ([9]; replicative senescence IMR90, 10 nM (Fig. 5d)): significant increase
C[C@@H]1O[C@@H](O[C@H]2C[C@@H](O)[C@]3(CO)[C@H]4[C@H](O)C[C@]5(C)[C@@H](C6=CC(=O)OC6)CC[C@]5(O)[C@@H]4CC[C@]3(O)C2)[C@H](O)[C@H](O)[C@H]1O [Ouabain, ouabain, reference compound]	1.9	0.1	1.9	0.95	2.6	1.45	2.6	1.55	3	2.7	4	4.6	3.9	7.55	3.9	8.25	6.4%	94.8% and 97.2% and 95.8% and 90.6% and 106.9% and 98.6% and 108.7% and 109.7% and 103.6% and 106.2% and 99.7%	87.7% and 109.8% and 97.7% and 103.7% and 127.7% and 98.4% and 119.9% and 122.1% and 126.3% and 124.6% and 125% and 96.4%	83.2% and 99.9% and 99.3% and 62.7% and 92.6% and 102.5% and 88.1% and 123.1% and 123.9% and 68.2% and 105.6% and 95.4% and 114.5% and 91.7%	Cell survival, mean (Test details, Mean 2) [5]: 0.9058; cytotoxic activity (crystal violet), in words [6]: no cytotoxic activity; % Cell Survival [6]: 100.7% and 91.1% and 79.5% and 88.8% and 108.2% and 92.7% and 95.3% and 93.9% and 97.9% and 80.1% and 99.8% and 95%; Mean (cell survival, Tukey test details) [6]: 0.9358; % BrdU positive cells, mean (Test details, Mean 2) [7]: 73.84%; % BrdU positive cells [7]: 69.37% and 73.68% and 73.67% and 78.62%; proliferation by BrdU incorporation, in words [7]: none of the cardiac glycosides induced unwanted changes in proliferation; cytotoxic activity / cellular content (crystal violet), in words [8]: no cytotoxic activity; % Cell Survival [8]: 99% and 102.3% and 88.5% and 93% and 111.6% and 79.7% and 87.5% and 77.4% and 104.8% and 84.4% and 78.3% and 72%; Mean (cell survival, Tukey test details) [8]: 0.8988; NOXA mRNA expression, group mean (Test details, Mean 2) [9]: 15.44; NOXA mRNA expression [9]: 23.42 and 22.01 and 0.88
